Reference: patent publication US9505798B2, “Steroid compounds as RORyt modulators and uses thereof” (New York University, priority 2010, dated 2016)
Where two headings read alike, the source gives them in different places.

Experiments:
[1] = biological target: T1, mouse RORγt (Mus musculus, UniProt P51450); experiment: Drosophila S2 cell RORγt luciferase reporter; type: cell-based; conditions: for effect on RORγ transcriptional activity: S2 reporter system
T1 construct: mouse RORγt (amino acids 79 to the carboxyl terminal end); expressed in transfected cells
T1 sequence (P51450 79-495 isoform P51450-2): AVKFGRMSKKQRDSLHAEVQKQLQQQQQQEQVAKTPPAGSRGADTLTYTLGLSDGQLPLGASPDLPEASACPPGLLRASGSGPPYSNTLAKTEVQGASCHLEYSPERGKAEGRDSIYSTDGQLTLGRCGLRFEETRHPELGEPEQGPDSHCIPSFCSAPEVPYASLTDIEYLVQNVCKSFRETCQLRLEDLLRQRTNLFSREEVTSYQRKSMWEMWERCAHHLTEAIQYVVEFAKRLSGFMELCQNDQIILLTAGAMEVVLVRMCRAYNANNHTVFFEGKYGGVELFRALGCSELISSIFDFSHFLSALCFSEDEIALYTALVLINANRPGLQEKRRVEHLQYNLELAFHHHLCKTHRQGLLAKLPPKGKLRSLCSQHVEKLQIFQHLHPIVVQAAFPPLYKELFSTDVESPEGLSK
From the text: The Drosophila S2 cell line was originally purchased from Invitrogen and was maintained in Schneider's medium supplemented with 10% heat-inactivated bovine fetal calf serum and antibiotics (Invitrogen). […] The resulting chimeric gene was subcloned into the copper inducible pMT/V5-His A vector (Invitrogen). […] Coding sequences for firefly luciferase (Promega) were PCR amplified and subcloned into pUAST vector containing Gal4 binding enhancer sequences. Renilla luciferase construct under the polIII promoter was obtained from Dr. Dasgupta's laboratory (NYU medical center). In order to generate stable cell lines, cells were co-transfected with pMT-G4 DBD-RORγt, pMT-G4 DBD-RORα, pMT-G4 DBD-DHR3, or pMT-G4 DBDVP16 and pHygro plasmids (Invitrogen) and screened for resistant colonies in the presence of hygromycin (0.3 mg/mL). […] Using similar methods, stable clones with genomic integration of the luciferase reporters and other reporters were generated such as pMT-RORα_luc, pMT-DHR3_Luc, or pMT-VP16_luc.
(§1) The following representative compounds are tested for their RORγt inhibitory activity and toxicity.
Promega Dual-Glo system is widely used for HTS as the luciferase substrates. Cell culture medium was reduced to the final volume of 10 μl or less and 10 μl of Dual-glo and 10 μl of Stop-glo luciferase substrates were added in a sequencial manner (Promega). Firefly and Renilla luciferase activity was determined by measuring luminescence signals using an automated 384-well plate reader equipped with multiple stack units (such as the Analyst GT or Envision plate readers).
10,000 Drosophila stable S2 cells with genomic integration of the Cu2+-inducible G4 DBD-mouse RORγ construct were transfected with 5 ng of pUASTfirefly luciferase and 7 ng of Pol III-Renilla luciferase and dispensed into white bottom-tissue culture 384-well plates (Corning). […] The following morning, Stop-glo luciferase substrates (Promega) were used to measure luciferase activity.
The Drosophila S2 cell line was originally purchased from Invitrogen and was maintained in Schneider's Drosophila medium supplemented with 10% heat-inactivated bovine fetal calf serum and 1× antibiotic-antimycotic solution (Invitrogen). […] The resulting chimeric gene was subcloned into the copper inducible pMT/V5-His A vector (Invitrogen) and into the constitutive pAc vector. […] Coding sequences for firefly luciferase (Promega) were PCR amplified and subcloned into the pUAST vector containing five Gal4 binding enhancer sequences. The Renilla luciferase construct under a pol III promoter and the pAc vector were obtained from R. Dasgupta (NYU School of Medicine). To generate cell lines stably expressing various chimeric proteins upon copper addition, S2 cells were co-transfected with pMT plasmids encoding individual G4 DBD chimeric constructs and the pCoHygro plasmid (Invitrogen), before screening for resistant colonies in the presence of hygromycin (0.3 mg/mL). […] The human androgen receptor (hAR) expression plasmid pMK33-hAR and its reporter TAT3-Luc were obtained from M. Garabedian (NYU School of Medicine). […] R1881 (10 nM) and Dafachronic acid (10 μM) were used as ligands for hAR and Daf12. Upon treatment of cells with copper, in 384 well plates, there was specific increase in firefly luciferase activity versus normalized Renilla luciferase activity for all cell lines described above, validating the method for high-throughput screen.
Transfections of firefly and Renilla reporter constructs were performed using the Effectene kit from Qiagen according to the manufacturer's protocol with some modifications.

[2] = system: human embryonic kidney 293t cell lines; experiment: Toxicity on human embryonic kidney 293T cells; conditions: human embryonic kidney 293t cell lines
Description: as §1

[3] = biological target: T2, RORγt (Mus musculus, UniProt P51450); type: cell-based; conditions: mouse T cells
T2 construct: expressed in transfected cells; host or cells: mouse naive CD4+ T cells, retroviral MIGr vector
T2 sequence (P51450 other isoform, or with tags, fused parts or gaps): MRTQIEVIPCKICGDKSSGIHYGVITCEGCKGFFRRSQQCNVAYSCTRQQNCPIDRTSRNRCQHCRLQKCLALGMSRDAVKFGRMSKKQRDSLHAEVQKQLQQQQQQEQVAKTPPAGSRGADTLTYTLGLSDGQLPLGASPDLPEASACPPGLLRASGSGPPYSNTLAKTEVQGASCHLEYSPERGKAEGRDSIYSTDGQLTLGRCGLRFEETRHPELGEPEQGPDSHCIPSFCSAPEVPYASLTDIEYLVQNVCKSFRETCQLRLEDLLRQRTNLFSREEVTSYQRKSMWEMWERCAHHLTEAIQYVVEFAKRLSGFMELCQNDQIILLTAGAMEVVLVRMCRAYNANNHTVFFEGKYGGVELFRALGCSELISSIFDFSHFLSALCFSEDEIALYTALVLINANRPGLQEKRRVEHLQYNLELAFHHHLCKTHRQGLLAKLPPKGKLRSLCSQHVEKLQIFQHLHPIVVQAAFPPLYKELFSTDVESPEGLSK
Description: Naive CD25^− CD62L^+CD44^low/int cells were sorted from RORγt^fl/fl mice and transduced with control-IRES-GFP (WT) or CRE-IRES-GFP (KO) retrovirus. […] FACS-sorted naive T cells were transduced with retroviral vectors encoding murine RORα-IRES-GFP or RORγt-IRES-GFP on Day 1 (16 h after TCR stimulation) and GFP expressing cells were gated for analysis on Day 5. […] Lymphocytes were isolated on day 21 after disease induction. The cells were stimulated for 4 h with PMA/Ionomycin and stained for surface markers and intracellular cytokines.
T cells were purified from lymph nodes and spleens of six to eight weeks old B6 mice (Taconic), by magnetically depleting B220^+ cells (autoMACS, Miltenyi), and then sorting CD8^−DAPI^−CD19^−CD4^+CD25^−CD62L^+CD44^low/Int naive T cells on a FACSAria (BD). […] For T cell polarization, 200 μl cells were seeded at 0.4×10^5 cells per mL in 96-well plates pre-coated with anti-CD3ε (5 μg/mL) and anti-CD28 (10 μg/mL). Cells were cultured for 4-5 days in Th17 (TGF-β (0.3 ng/mL), IL-6 (20 ng/mL), and anti-IFN-γ and anti-IL-4 (2 ng/mL)), Th1 (IL-12 (10 ng/mL), IL-2 (10 U/mL) and anti-IL-4 (2 ng/mL)), or Th2 (IL-4 (10 ng/mL), and anti-P35 and anti-IFN-γ 2 ng/mL)) conditions. For ectopic expression ROR proteins, native CD4^+ T cells were infected with retroviral MIGr-control, MIGr-RORα or MIGr-RORγ 24 hrs after activation, and cultured without exogenous cytokines or only with IL-6. At day 1, compounds dissolved in DMSO were added. For cytokine analysis, cells were incubated for 5 hours with phorbol 12-myristate 13-acetate (50 ng/mL; Sigma), ionomycin (500 ng/mL; Sigma) and GolgiStop (BD). Intracellular cytokine staining was performed according to the manufacturer's protocol (Cytofix/Cytoperm buffer set from BD) with alexa647-conjugated anti-IL-17a (eBioscience), and PE-conjugated anti-IFN-γ or anti-IL-4 (eBioscience). An LSR II (BD Biosciences) and FlowJo software (Tree Star) were used for flow cytometry and analysis. Dead cells were excluded using the Live/Dead fixable aqua dead cell stain kit (Invitrogen).

[4] = system: experimental autoimmune encephalomyelitis (EAE); experiment: Active EAE (MOG35-55/CFA) in C57BL/6 mice; type: in vivo, mouse; conditions: IP daily from day 2

## CC1O[C@@H](OC2C(C)O[C@H](OC3C(C)O[C@@H](O[C@H]4CC[C@@]5(C)[C@H](CC[C@@H]6[C@@H]5C[C@@H](O)[C@]5(C)[C@@H](C7=CC(=O)OC7Cc7ccccc7O)CC[C@]65O)C4)C[C@H]3O)C[C@H]2O)C[C@@H](O)C1O (stereo partly shown) [Compound 18, Digoxin-21-salicylyl]
[1]
  IC50: < 1 µM
[2]
  Human cell toxicity: xxx (cytotoxicity between 1-10 μM)

## CC1O[C@@H](OC2C(C)O[C@H](OC3C(C)O[C@@H](O[C@H]4CC[C@@]5(C)[C@H](CC[C@@H]6[C@@H]5C[C@@H](O)[C@]5(C)[C@@H](C7CC(=O)OC7Cc7ccccc7O)CC[C@]65O)C4)C[C@H]3O)C[C@H]2O)C[C@@H](O)C1O (stereo partly shown) [Compound 19]
[1]
  IC50: 1 to 10 µM
[2]
  Human cell toxicity: xxx (cytotoxicity between 1-10 μM)

## CC1O[C@@H](OC2C(C)O[C@H](OC3C(C)O[C@@H](O[C@H]4CC[C@@]5(C)[C@H](CC[C@@H]6[C@@H]5C[C@@H](O)[C@]5(C)[C@@H](C7CC(O)OC7Cc7ccccc7O)CC[C@]65O)C4)C[C@H]3O)C[C@H]2O)C[C@@H](O)C1O (stereo partly shown) [Compound 20]
[1]
  IC50: > 20 µM

## CC(=O)OC1C(C)O[C@@H](OC2C(C)O[C@H](OC3C(C)O[C@@H](O[C@H]4CC[C@@]5(C)[C@H](CC[C@@H]6[C@@H]5C[C@@H](OC(C)=O)[C@]5(C)[C@@H](C7=CC(=O)OC7)CC[C@]65O)C4)C[C@H]3OC(C)=O)C[C@H]2OC(C)=O)C[C@H]1OC(C)=O (stereo partly shown) [Compound 21]
[1]
  IC50: > 20 µM

## COC(=O)C1CCC2(O)C3CCC4CC(OC5CC(O)C(OC6CC(O)C(OC7CC(O)C(O)C(C)O7)C(C)O6)C(C)O5)CCC4(C)C3CC(O)C12C (stereo not shown) [Compound 24]
[1]; S2 cell RORγt reporter, read-out: IC50
  IC50: 1 to 10 µM

## C[C@H]1O[C@@H](O[C@H]2[C@@H](O)C[C@H](O[C@H]3[C@@H](O)C[C@H](O[C@H]4CC[C@@]5(C)[C@H](CC[C@@H]6[C@@H]5CC[C@]5(C)[C@@H](C7=CC(=O)OC7)CC[C@]65O)C4)O[C@@H]3C)O[C@@H]2C)C[C@H](O)[C@@H]1O [Digitoxin]
[1]
  effect on RORγ transcriptional activity: selectively inhibited RORγ with similar IC50 values
[3]
  RORγt-dependent Th17 cell differentiation: selectively inhibited

## C[C@H]1O[C@@H](O[C@H]2CC[C@@]3(C)[C@H](CC[C@@H]4[C@@H]3C[C@@H](O)[C@]3(C)[C@@H](C5=CC(=O)OC5)CC[C@]43O)C2)C[C@H](O)[C@@H]1O[C@H]1C[C@H](O)[C@H](O[C@H]2C[C@H](O)[C@H](O[C@@H]3O[C@H](CO)[C@@H](O)[C@H](O)[C@H]3O)[C@@H](C)O2)[C@@H](C)O1 [deslanoside, Deslanoside]
[1]
  effect on RORγ transcriptional activity: no significant effect

## C[C@]12CC[C@H](O)C[C@H]1CC[C@@H]1[C@@H]2CC[C@]2(C)[C@@H](C3=CC(=O)OC3)CC[C@]12O [digitoxigenin, Digitoxigenin]
[1]
  effect on RORγ transcriptional activity: no significant effect

## C[C@]12CC[C@H](O)C[C@H]1CC[C@@H]1[C@@H]2C[C@@H](O)[C@]2(C)[C@@H](C3=CC(=O)OC3)CC[C@]12O [digoxigenin, Digoxigenin]
[4]
  EAE onset and severity of progression: no effect

## C[C@H]1O[C@@H](O[C@H]2CC[C@]3(C=O)[C@H]4CC[C@]5(C)[C@@H](C6=CC(=O)OC6)CC[C@]5(O)[C@@H]4CC[C@]3(O)C2)C[C@H](O)[C@@H]1O[C@@H]1O[C@H](CO)[C@@H](O)[C@H](O)[C@H]1O [erysimoside, Erysimoside]
[1]
  effect on RORγ transcriptional activity: no significant effect

## CO[C@H]1C[C@H](O[C@H]2CC[C@@]3(C)[C@H](CC[C@@H]4[C@@H]3CC[C@]3(C)[C@@H](C5=CC(=O)OC5)[C@@H](OC(C)=O)C[C@]43O)C2)O[C@@H](C)[C@@H]1O [oleandrin, Oleandrin]
[1]
  effect on RORγ transcriptional activity: no significant effect

## C[C@]12C[C@@H](O)[C@H]3[C@@H](CC[C@]4(O)C[C@@H](O)C[C@@H](O)[C@]34CO)[C@@]1(O)CC[C@@H]2C1=CC(=O)OC1 [ouabagenin, Ouabagenin]
[1]
  effect on RORγ transcriptional activity: no significant effect

## C[C@@H]1O[C@@H](O[C@H]2C[C@@H](O)[C@]3(CO)[C@H]4[C@H](O)C[C@]5(C)[C@@H](C6=CC(=O)OC6)CC[C@]5(O)[C@@H]4CC[C@]3(O)C2)[C@H](O)[C@H](O)[C@H]1O [ouabain, Ouabain octahydrate]
[1]
  effect on RORγ transcriptional activity: no significant effect

## C[C@@H]1O[C@@H](O[C@@H]2C=C3CC[C@@H]4[C@H](CC[C@]5(C)[C@@H](c6ccc(=O)oc6)CC[C@]45O)[C@@]3(C)CC2)[C@H](O)[C@H](O)[C@H]1O [proscillaridin A, Proscillaridin A]
[1]
  effect on RORγ transcriptional activity: no significant effect

## β-acetyldigoxin
[1]
  effect on RORγ transcriptional activity: selectively inhibited RORγ with similar IC50 values
[3]
  RORγt-dependent Th17 cell differentiation: selectively inhibited
